Results from US20210309619A1, “ISOXAZOLIN-5-ONE DERIVATIVES AND HERBICIDES CONTAINING THE SAME AS ACTIVE INGREDIENTS” (HOKKO CHEMICAL INDUSTRY CO., LTD., priority 2018, published 2021).

What was measured:
Assay type in all cases: in vivo
[1] = test system: Echinochloa crus-galli; assay: Herbicidal effect test by treatment of stem and leaf in dry field farming (Test Example 4); settings: 120 g/10 a, stem and leaf treatment seven days after seeding, 14 days after treatment
Description: (§1) Herbicidal Rate (%)={1−(Average Dry Weight (g) of Plant of Treated Area)/(Average Dry Weight (g) of Plant of Untreated Area)}×100 [Math. 1] Pots with a size of 36 cm^2 were filled with a dry field farming soil (alluvium). The soil of the top layer of 1 cm and seeds of weeds, namely southern crabgrass, Echinochloa crus-galli, Chenopodium album and Amaranthus viridis, 20 seeds each, were evenly mixed, and the top layer was gently pressed. Emulsions prepared using the compounds in Table 6 below according to Formulation Example 5 were diluted with water seven days after seeding, and the water-diluted agent solutions were sprayed to the soil surfaces at a ratio of 100 liters per 10 ares. A converted amount of the applied active ingredient corresponded to 120 g per 10 ares. The herbicidal effects were evaluated by the same standard as that in Test Example 1, 14 days after the treatment with the agents. In this regard, the compound numbers in Table 6 are the same as those in Table 1 and Table 2 above.

[2] = test system: Amaranthus viridis; assay: as above; settings: 120 g/10 a, stem and leaf treatment seven days after seeding, 14 days after treatment
Description: as §1

[3] = test system: southern crabgrass; assay: as above; settings: 120 g/10 a, stem and leaf treatment seven days after seeding, 14 days after treatment
Description: as §1

[4] = test system: Chenopodium album; assay: as above; settings: 120 g/10 a, stem and leaf treatment seven days after seeding, 14 days after treatment
Description: as §1

[5] = test system: Scirpus juncoides; assay: Herbicidal effect test by treatment of rice paddy soil (Test Example 1); settings: 120 g/10 a, treated immediately after seeding, 14 days after treatment
Protocol: (§2) Wagner pots with an area of 1/10000 ares were filled with a paddy soil, and a compound fertilizer (N:P:K=17:17:17) was mixed after water was added, followed by soil puddling. Then, Echinochloa crus-galli, broad leaf weeds (Lindernia pyxidaria and Monochoria vaginalis) and Scirpus juncoides, 30 seeds each, were sown in a depth of 0 to 1 cm. Water was poured immediately after seeding, and the water depth was kept at about 3 cm. A subsequent management was conducted in a glass greenhouse. Immediately after that, emulsions prepared using the compounds in Table 3 below according to Formulation Example 5 were diluted with water, and a certain amount of the water-diluted agent solutions were dropped. A converted amount of the applied active ingredient corresponded to 120 g per 10 ares.
(§3) This test was conducted in a double system per one agent solution concentration area, and the herbicidal rates (%) were determined by the following equation (Math. 1) 14 days after the treatment with the agents.
(§4) Herbicidal Rate (%)={1−(Average Dry Weight (g) of Plant of Treated Area)/(Average Dry Weight (g) of Plant of Untreated Area)}×100 [Math. 1]

[6] = test system: Lindernia pyxidaria; assay: as above; settings: 120 g/10 a, treated immediately after seeding, 14 days after treatment
Protocol: as §2, §3, §4

[7] = test system: Echinochloa crus-galli; assay: as above; settings: 120 g/10 a, treated immediately after seeding, 14 days after treatment
Protocol: as §2, §3, §4

[8] = test system: Monochoria vaginalis; assay: as above; settings: 120 g/10 a, treated immediately after seeding, 14 days after treatment
Protocol: as §2, §3, §4

[9] = test system: Echinochloa crus-galli; assay: Herbicidal effect test by treatment of dry field farming soil (Test Example 3); settings: 120 g/10 a, sprayed one day after seeding, 14 days after treatment
Description: as §1, with “Table 5” for “Table 6”, “water one day” for “water seven days”

[10] = test system: Amaranthus viridis; assay: as above; settings: 120 g/10 a, sprayed one day after seeding, 14 days after treatment
Description: as §1, with “Table 5” for “Table 6”, “water one day” for “water seven days”

[11] = test system: southern crabgrass; assay: as above; settings: 120 g/10 a, sprayed one day after seeding, 14 days after treatment
Description: as §1, with “Table 5” for “Table 6”, “water one day” for “water seven days”

[12] = test system: Chenopodium album; assay: as above; settings: 120 g/10 a, sprayed one day after seeding, 14 days after treatment
Description: as §1, with “Table 5” for “Table 6”, “water one day” for “water seven days”

[13] = test system: Scirpus juncoides; assay: Herbicidal effect test by treatment during growing period in paddy rice cultivation (Test Example 2); settings: 120 g/10 a, treated seven days after seeding, 14 days after treatment
Description: as §4
as §2, with “after addition of water,” for “after water was added,”, “greenhouse. Emulsions” for “greenhouse. Immediately after that, emulsions”, “Table 4” for “Table 3”, “with water seven days after seeding,” for “with water,”, “ares. The test was conducted in a double system per one agent solution concentration area, and the herbicidal rates (%) were determined by the equation (Math. 1) 14 days after the treatment with the agents. In this regard, the compound numbers in Table 4 are the same as those in Table 1 and Table 2 above.” for “ares.”

[14] = test system: Lindernia pyxidaria; assay: as above; settings: 120 g/10 a, treated seven days after seeding, 14 days after treatment
Description: as §4
as §2, with “after addition of water,” for “after water was added,”, “greenhouse. Emulsions” for “greenhouse. Immediately after that, emulsions”, “Table 4” for “Table 3”, “with water seven days after seeding,” for “with water,”, “ares. The test was conducted in a double system per one agent solution concentration area, and the herbicidal rates (%) were determined by the equation (Math. 1) 14 days after the treatment with the agents. In this regard, the compound numbers in Table 4 are the same as those in Table 1 and Table 2 above.” for “ares.”

[15] = test system: Echinochloa crus-galli; assay: as above; settings: 120 g/10 a, treated seven days after seeding, 14 days after treatment
Description: as §4
as §2, with “after addition of water,” for “after water was added,”, “greenhouse. Emulsions” for “greenhouse. Immediately after that, emulsions”, “Table 4” for “Table 3”, “with water seven days after seeding,” for “with water,”, “ares. The test was conducted in a double system per one agent solution concentration area, and the herbicidal rates (%) were determined by the equation (Math. 1) 14 days after the treatment with the agents. In this regard, the compound numbers in Table 4 are the same as those in Table 1 and Table 2 above.” for “ares.”

[16] = test system: Monochoria vaginalis; assay: as above; settings: 120 g/10 a, treated seven days after seeding, 14 days after treatment
Description: as §4
as §2, with “after addition of water,” for “after water was added,”, “greenhouse. Emulsions” for “greenhouse. Immediately after that, emulsions”, “Table 4” for “Table 3”, “with water seven days after seeding,” for “with water,”, “ares. The test was conducted in a double system per one agent solution concentration area, and the herbicidal rates (%) were determined by the equation (Math. 1) 14 days after the treatment with the agents. In this regard, the compound numbers in Table 4 are the same as those in Table 1 and Table 2 above.” for “ares.”

| SMILES | Herbicidal rate, Echinochloa crus-galli [1] [%] | Herbicidal rate, Amaranthus viridis [2] [%] | Herbicidal rate, southern crabgrass [3] [%] | Herbicidal rate, Chenopodium album [4] [%] | Herbicidal rate, Scirpus juncoides [5] [%] | Herbicidal rate, Lindernia pyxidaria [6] [%] | Herbicidal rate, Echinochloa crus-galli [7] [%] | Herbicidal rate, Monochoria vaginalis [8] [%] | Herbicidal rate, Echinochloa crus-galli [9] [%] | Herbicidal rate, Amaranthus viridis [10] [%] | Herbicidal rate, southern crabgrass [11] [%] | Herbicidal rate, Chenopodium album [12] [%] | Herbicidal rate, Scirpus juncoides [13] [%] | Herbicidal rate, Lindernia pyxidaria [14] [%] | Herbicidal rate, Echinochloa crus-galli [15] [%] | Herbicidal rate, Monochoria vaginalis [16] [%] |
| --- | --- | --- | --- | --- | --- | --- | --- | --- | --- | --- | --- | --- | --- | --- | --- | --- |
| COC1CCCC1n1oc(=O)c(Cc2ccccc2N(S(=O)(=O)C(F)(F)F)S(=O)(=O)C(F)(F)F)c1C (stereo not shown) [Compound 349, 1,1,1-trifluoro-N-[2-[[(2-methoxycyclopentyl)-3-methyl-5-oxoisoxazol-4-yl]methyl]phenyl]-N-(trifluoromethylsulfonyl)methanesulfonamide] | 90 | 80 | 80 | 80 | 90 | 100 | 100 | 100 | 90 | 90 | 90 | 60 | 90 | 80 | 100 | 80 |
| COC1CCCC1n1oc(=O)c(Cc2ccccc2N(C(=O)OC(C)C)S(=O)(=O)C(F)(F)F)c1C (stereo not shown) [Compound 212] | 90 | 90 | 80 | 90 | 100 | 100 | 100 | 100 | 90 | 60 | 90 | 60 | 90 | 80 | 100 | 90 |
| COC1CCCCC1n1oc(=O)c(Cc2ccccc2N(S(=O)(=O)C(F)(F)F)S(=O)(=O)C(F)(F)F)c1C (stereo not shown) [Compound 351, 1,1,1-trifluoro-N-[2-[[(2-methoxycyclohexyl)-3-methyl-5-oxoisoxazol-4-yl]methyl]phenyl]-N-(trifluoromethylsulfonyl)methanesulfonamide] | 90 | 80 | 80 | 80 | 90 | 100 | 100 | 100 | 90 | 90 | 90 | 60 | 90 | 80 | 100 | 80 |
| CCOC(=O)N(c1ccccc1Cc1c(C)n(C2CCCCC2OC)oc1=O)S(=O)(=O)C(F)(F)F (stereo not shown) [Compound 190, ethyl N-[2-[[(2-methoxycyclohexyl)-3-methyl-5-oxoisoxazol-4-yl]methyl]phenyl]-N-(trifluoromethylsulfonyl)carbamate] | 90 | 90 | 90 | 90 | 100 | 100 | 100 | 100 | 90 | 90 | 90 | 60 | 90 | 80 | 100 | 90 |
| COC1CCCC1n1oc(=O)c(Cc2ccccc2N(C(=O)C(C)C)S(=O)(=O)C(F)(F)F)c1C (stereo not shown) [Compound 113] | 90 | 90 | 80 | 90 | 100 | 100 | 100 | 100 | 90 | 60 | 90 | 60 | 90 | 80 | 100 | 90 |
| CCCOC(=O)N(c1ccccc1Cc1c(C)n(C2CCCC2OC)oc1=O)S(=O)(=O)C(F)(F)F (stereo not shown) [Compound 200] | 90 | 90 | 80 | 90 | 100 | 100 | 100 | 100 | 90 | 60 | 90 | 60 | 90 | 80 | 100 | 90 |
| COC1CCCCC1n1oc(=O)c(Cc2ccccc2N(C(=O)Oc2ccccc2)S(=O)(=O)C(F)(F)F)c1C (single isomer, unassigned) [Compound 289] |  | 90 |  | 90 | 100 | 100 | 100 | 100 | 90 | 40 | 90 | 60 | 90 | 90 |  | 90 |
